Assays:
[1] = tested on: HIV; assay: Anti-HIV activity (HeLa-CD4 cells, β-gal reporter assay); type: cell-based; conditions: Human immunodeficiency virus 1, 72 h, concentration to inhibit HIV infection by 50%, 3 days, luminescence
Procedure: A HeLa-CD4 cell suspension (2.5×10^4 cell/well) was dispensed to each well on an assay plate. After incubating at 37° C. for 1 hour under condition of 5% CO2, a solution to dilute a compound (50 μL) was added to each well (provided that a cell control was excluded). A culture solution (50 μL) was added to a well of the cell control. The plate was incubated at 37° C. for 3 days under condition of 5% CO2.
After the culture solution was aspirated from each well, 100 μL of a cell lysate of the reporter assay kit—β gal—was added to all wells, and then the plate was frozen at −80° C. to completely lyse cells. The plate was left at room temperature to unfreeze the cell lysate, it was centrifuged at 1200 rpm for 5 minutes at room temperature (Kubota centrifuge KR-600P). 20 μL of the supernatant was dispensed from each well to 96-well black plate, 100 μL of a luminescent reagent of the reporter assay kit—β gal—was added to each well. The plate was incubated at room temperature for 1 hour. The luminescence intensity from each well was measured by MicroBeta TRILUX instrument (PerkinElmer). A concentration (conc.) to inhibit HIV infection by 50% was calculated to obtain an EC50 value.

[2] = molecular target: HIV integrase (Human immunodeficiency virus type 1 group M subtype B, UniProt P04585); assay: Integrase inhibitory activity (strand transfer ELISA on streptavidin plates); type: biochemical; conditions: integrase inhibition rate, absorbance OD 405 nm
Procedure: By the same method as that described in Experimental Example 1 of Patent Document 2, a substrate DNA solution (2 μmol/μl) and a target DNA solution (5 μmol/μl) were prepared. […] Each sequence of a substrate DNA and a target DNA is as described in the same Experimental Example.
(2) Measurement of Inhibition Rate (IC50 Value)
Onto Immobilizer—Streptavidin Plates (manufactured by NUNC) was added 50 μl of a substrate DNA solution (2 μmol/μl). After adsorbing at room temperature for 60 minutes under shaking, it was washed with a phosphate buffer two times.
Then, to each well prepared as described above were added 12 μl of a buffer (composition: 150 mM MOPS (pH7.2), 75 mM MnCl2, 50 mM 2-mercaptoethanol, 25% glycerol, 500 μg/ml bovine serum albumin-fraction V), and 51 μl of a reaction solution prepared from 39 μl of distilled water. Then, 9 μl of an integrase solution (30 μmol) was added, and the mixture was mixed well. To a well as a negative control (NC) was added 9 μl of a diluting solution (composition: 20 mM MOPS (pH 7.2), 400 mM potassium glutamate, 1 mM EDTA, 0.1% NP-40, 20% glycerol, 1 mM DTT, 4 M urea), and this was mixed well using a plate mixer.
After the plate was incubated at 30° C. for 60 minutes, the reaction solution was discarded, followed by washing with 200 μl of a washing buffer (composition: 150 mM MOPS (pH 7.2), 50 mM 2-mercaptoethanol, 25% glycerol, 500 μg/ml bovine serum albumin-fraction V) three times.
Then, to each well were added 12 μl of a buffer (composition: 150 mM MOPS (pH 7.2), 75 mM MgCl2, 50 mM 2-mercaptoethanol, 25% glycerol, 500 μg/ml bovine serum albumin-fraction V), and 53 μl of a reaction solution prepared from 41 μl of distilled water. Further, 6 μl of a solution of a test compound in DMSO was added to each well, and 6 μl of DMSO was added to a well as a positive control (PC), followed by mixing well using a plate mixer. After the plate was incubated at 30° C. for 60 minutes, 1 μl of a target DNA (5 μmol/μl) was added, and this was mixed well using a plate mixer.
After each plate was incubated at 30° C. for 10 minutes, the reaction solution was discarded, followed by washing with a phosphate buffer two times. Then, an anti-digoxigenin antibody labeled with alkaline phosphatase (sheep Fab fragment: manufactured by Boehringer) was diluted 2000-fold with an antibody diluting solution, 100 μl of the diluent was added to bind at 30° C. for 1 hour, and this was washed successively with a phosphate buffer containing 0.05% Tween 20 two times, and a phosphate buffer two times. […]
C abs.: Absorbance of well of compound
NC abs.: Absorbance of NC
PC abs.: Absorbance of PC

Structure (SMILES) | EC50 [1] [nM] | IC50 [2] [nM]
C[C@@H]1CCO[C@H]2Cn3cc(C(=O)NCc4nc5ccccc5s4)c(=O)c(O)c3C(=O)N12 [Compound A-66] | 38 | –
C[C@@H]1CCO[C@H]2Cn3cc(C(=O)NC(c4ccccc4)c4ccccc4)c(=O)c(O)c3C(=O)N12 [Compound A-15] | 16 | –
C[C@@H]1CCO[C@H]2Cn3cc(C(=O)NCCC4CCCCC4)c(=O)c(O)c3C(=O)N12 [Compound A-42] | 46 | –
C[C@@H]1CCO[C@H]2Cn3cc(C(=O)NCC4CCCCCC4)c(=O)c(O)c3C(=O)N12 [Compound A-50] | 32 | 13.5
C[C@@H]1CCO[C@H]2Cn3cc(C(=O)NCc4cccs4)c(=O)c(O)c3C(=O)N12 [Compound A-39] | 11 | 27
C[C@@H]1CCO[C@H]2Cn3cc(C(=O)NCc4cc5ccccc5s4)c(=O)c(O)c3C(=O)N12 [Compound A-20] | 11 | 28.4
C[C@@H]1CCO[C@H]2Cn3cc(C(=O)NCc4ccsc4)c(=O)c(O)c3C(=O)N12 [Compound A-56] | 6.4 | 29.7

Now from value to compound, other results behind:

EC50 [1] [nM] | Structure (SMILES) | IC50 [2] [nM]
42 | C[C@@H]1CCO[C@H]2Cn3cc(C(=O)NCc4ccoc4)c(=O)c(O)c3C(=O)N12 [Compound A-41] | –
22 | C[C@@H]1CCO[C@H]2Cn3cc(C(=O)NCCc4cccs4)c(=O)c(O)c3C(=O)N12 [Compound A-65] | –
25 | C[C@@H]1CCO[C@H]2Cn3cc(C(=O)NC[C@@H]4CCCO4)c(=O)c(O)c3C(=O)N12 [Compound A-21] | –
32 | C[C@@H]1CCO[C@H]2Cn3cc(C(=O)NCc4nccs4)c(=O)c(O)c3C(=O)N12 [Compound A-12] | –
15 | C[C@@H]1CCO[C@H]2Cn3cc(C(=O)NNC(=O)c4ccc(F)cc4)c(=O)c(O)c3C(=O)N12 [Compound A-38] | –

— US9216995B2, “Pyridone derivative having integrase inhibitory activity” (SHIONOGI & CO., LTD., priority 2010, dated 2015)
